# Legend:
# CsgA = CsgA (Escherichia coli, UniProt P28307); conditions: peptides immobilized on glass slide; recombinant CsgA ~2 μm, about 10% labeled with ALEXA-647; stringent wash
# Procedure: Peptide array synthesis, hybridization and quantification. […] Each peptide spot (250 μM in diameter) is printed with 3 drops of 0.5 nL of peptide solution at a concentration of approximately 2.5 μM using non-contact printing (JPT Peptide Technologies GmbH). The unreacted peptides are removed from the hydrogel slides, dried and then the slides are blocked with 3% BSA in PBST for 1 hr. CsgA proteins are denatured in 6 M GuHCl at 100° C. for approximately 20 minutes, diluted 125 times in PBST containing 3% BSA to a final concentration of 1-5 μM and a label ratio of 5-75%. A single peptide array is incubated with approximately 2-3 mL of diluted CsgA using an ATLAS™ hybridization chamber (BD Biociences) without mixing for a given period of time. The peptide arrays are then washed 5 times with 50 mL of 2% SDS for 30 minutes, 5 times with 50 mL of water, 3 times with 50 mL of methanol and then spun dry. […] The arrays are imaged using a GENEPIX® 4000A scanner and the median values for the peptide spots of two to three replicates are quantified using GENEPIX® Pro 6.0 software (Molecular Devices).
# Denatured peptides were arrayed on reactive glass slides and their interaction with soluble, fluorescently labeled CsgA was studied.
# A peptide library of CsgB sequences was generated and immobilized on a glass slide essentially as described above. […]
# curli = curli (Escherichia coli, UniProt P28307); assay: Inhibition of curli assembly (FIG. 4); assay type: biochemical; conditions: in the presence of compound
# Excerpt: DAPH-12 (top) blocks tyrosine stacking, while Amphotericin B (bottom) binds to the edge strands and prevents amyloid assembly.
# Sequence of curli (P28307 21-151): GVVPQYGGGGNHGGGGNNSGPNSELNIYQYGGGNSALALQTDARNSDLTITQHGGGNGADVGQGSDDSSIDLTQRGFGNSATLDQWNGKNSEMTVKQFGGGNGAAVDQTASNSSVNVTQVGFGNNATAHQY
# Sequence of CsgA (P28307 21-151): as above
Compound,"nucleation of assembly of soluble, fluorescently labeled CsgA by arrayed peptides (CsgA)",inhibition of curli assembly (curli)
GTQKTAIVVQRQSQMAIRVT [SEQ ID NO: 2],nucleate assembly of CsgA,–
COc1ccc(Nc2cc3c(cc2Nc2ccc(OC)cc2)C(=O)NC3=O)cc1 [DAPH-12],–,inhibition of curli assembly
C[C@@H]1[C@H](O)[C@@H](C)/C=C/C=C/C=C/C=C/C=C/C=C/C=C/[C@H](O[C@@H]2O[C@H](C)[C@@H](O)[C@H](N)[C@@H]2O)C[C@@H]2O[C@](O)(C[C@@H](O)C[C@@H](O)[C@H](O)CC[C@@H](O)C[C@@H](O)CC(=O)O[C@H]1C)C[C@H](O)[C@H]2C(=O)O [Amphotericin B],–,inhibition of curli assembly
LRQGGSKLLAVVAQEGSSNRAK [SEQ ID NO: 1],nucleate assembly of CsgA,–
